Source: US20240409582A1, “DESIGN AND CHARACTERIZATION OF INHIBITORY PEPTIDES (IPEPS) DERIVED FROM OF MIEN 1 PROTEIN SEQUENCE” (priority 2022, published 2024)
Entries after “also recorded” stand apart in the source; their conditions may differ.

How the values were obtained:
MDA-MB-231 cells [1] = test: Wound healing assay; type: cell-based, human; conditions: MDA-MB-231, dose-dependent, sub-IC50 concentrations, 18 h
Protocol: Wound healing assay: The wound-healing assay on highly metastatic MDA-MB-231 cells was performed to check the anti-migratory activity of the peptides. MDA-MB-231 cells were plated in a six-well tissue culture plate to form a sub-confluent cell monolayer. The monolayer was scraped with a sterile 200 μL pipette tip in the middle of the culture well to produce equal-sized wounds. Cell debris was removed and the scratched cell monolayer was supplemented with fresh media containing sub-IC 50 concentrations of MIEN1-derived peptide and its analogs. Wound areas were measured by ImageJ software after 18 h and were compared to control.

MDA-MB-231 cells [2] = test: Transwell invasion assay; type: cell-based, human; conditions: MDA-MB-231, dose-dependent
Protocol: Transwell Invasion Assay: The capacity of human breast cancer MDA-MB-231 cells to pass through a polyethylene terephthalate membrane (6.4 mm diameter; 8 µm pore size) was measured using transwell chambers (Corning Life Sciences) in 24-well tissue culture plates. The MDA-MB-231 were pre-treated with the increasing concentrations of each peptide for 24 h in a 0.1% FBS containing DMEM media. Next day, cells were dislodged by trypsin and 40,000 cells/well were resuspended in a serum-free DMEM containing the second treatment of peptides and were added to the upper chamber, and 10% FBS containing media was added to the bottom chambers. After incubation for another 24 h, non-invasive cells on the upper surface of the membrane were carefully removed with a cotton swab; cells were fixed in 4% paraformaldehyde solution (Affymetrix USB) for 15 minutes followed by a PBS wash; the membrane insert was then fixed with ice-cold methanol for 20 minutes followed by staining with 0.25% crystal violet. The numbers of invaded cells were counted in random fields in Image J, and results were expressed as an average number of invaded cells compared with control.

[3] = tested on: focal adhesion kinase (FAK) phosphorylation at tyrosine 925; test: Western blot, phosphorylation of FAK; type: cell-based, human; conditions: MDA-MB-231 cell lysates, 48 h
Protocol: (§1) Western blot analysis: MDA-MB-231 cells and DU-145 cells were treated with all the test peptides for 48 h. Cell lysates were prepared, and cellular protein was extracted using RIPA lysis buffer (Millipore). […] After blocking with 5% bovine serum albumin, the membrane was incubated with the primary antibodies specific for various proteins at 4° C. overnight. After primary antibody incubation, membrane was washed thrice in TBS containing 0.1% Tween-20 for 5 min each and then incubated with appropriate HRP-conjugated secondary antibody. The immunoreactive protein bands were visualized by enhanced chemiluminescence (ECL) on Alpha Innotech chemiluminescent detection system.

[4] = tested on: phosphorylated cofilin (inactive cofilin); test: Western blot, phosphorylated cofilin; type: cell-based, human; conditions: whole cell lysates of MDA-MB-231 and DU-145 cells, 48 h
Protocol: as §1

[5] = tested on: phosphorylation of src at tyrosine 416; test: Western blot, phosphorylation of src; type: cell-based, human; conditions: MDA-MB-231, 48 h
Protocol: as §1

[6] = tested on: EMT genes (E-cadherin, N-Cadherin, SLUG, SNAIL, MMP-9, Zeb-1) in DU-145 prostate cancer cells; test: RT-qPCR of EMT genes in DU-145 cells; type: cell-based, human; conditions: DU-145, qPCR
Protocol: RT-qPCR Method: The changes in the mRNA levels of various genes in response to the peptide treatment in DU-145 cells were examined. Briefly, total RNA was purified using the TRIzol reagent (Invitrogen) according to the manufacturer's instructions. 1 μg of total RNA was reverse transcribed into cDNA using the Superscript-III First-Strand Synthesis kit (Invitrogen) following the manufacturer's protocol. RT-qPCR was performed with the SYBR Green Master Mix (Invitrogen) in a Realplex2 Mastercycler ep gradient S thermal cycler (Eppendorf). The PCR program followed for all the primers was an activation at 95° C. for 15 min, followed by 40 cycles of 95° C. for 30 sec, 54° C. for 1 min, and 72° C. for 45 sec. The reaction was finally put to hold at 4 C. The primers were synthesized by Integrated DNA Technologies (Coralville, IA and are described in Table 2. 18S was used as the reference genes for the mRNA levels. Fold-expression was calculated according to the ΔΔCt method.

[7] = tested on: MDA-MB-231 orthotopic tumors; test: Orthotopic breast cancer model in athymic nude mice; type: in vivo; conditions: for tumor growth: 30 mg/kg peritumoral every alternate day, 30 days; for decrease of tumor volume: 30 mg/kg peritumoral on alternate days, vs control
Protocol: Orthotropic Breast Cancer Models in Mice: All in vivo experiments were conducted on 6-8-week-old athymic nude mice (Charles River). MDA-M13-231 (1.5×10^6) cells were suspended in 50% Matrigel in DMEM high glucose (vol/vol) on ice for mammary fat pad injection. The control group received the same volume of matrigel (Corning Cat #356234) and media but no cells. […] Tumor volume was measured using a digital Vernier caliper on alternate days. The tumor volumes (mm3) were calculated using the following formula V=(W2×L)/2 (V, tumor volume: W, tumor width; L, tumor length). Mice were euthanized when rumors in the control group reached˜10% of body weight. At the end of the experiment, all animals were weighed, euthanized, and liver, lung, spleen, kidney brain, and tumors were harvested. The weights of tumors and organs were recorded.

MDA-MB-231 cells [8] = test: RNA-seq transcriptome of MDA-MB-231 cells after peptide treatment; type: cell-based, human; conditions: MDA-MB-231, RNA-seq
Protocol: RNeasy Mini Kit (Cat #74106, Qiagen,) was used for RNA isolation and all procedures were performed according to the manufacturer's specification. The purification included 15 minutes of in-column DNase I (Cat #79254, Qiagen,) treatment. […] The quality was controlled using Agilent Tapestation and Qubit 4 fluorometer. Sequencing was on an illumina NextSeq 550 system as per the recommended protocol. Raw sequencing files were adapter trimmed and quality filtered using fastp. The reads were mapped to hg38 reference genome using Hisat2. Differential gene expression analysis was performed using Deseq2.

Row | Substance | number of migrated cells in the wound healing assay (MDA-MB-231 cells [1]) | number of invaded cells (MDA-MB-231 cells [2]) | phosphorylation of FAK at tyrosine 925 [3] | phosphorylated cofilin [4] | phosphorylation of src at tyrosine 416 [5] | gene expression of SLUG, SNAIL, MMP 9, N-Cadherin and Zeb-1 [6] | gene expression of epithelial marker E-Cadherin [6] | tumor growth [7] | decrease of tumor volume [7] | phosphorylation of FAK at tyrosine 925 ([3]; listed as LA31K) | phosphorylation of src at tyrosine 416 ([5]; listed as LA31K) | response as per RECIST ([7]; 30 mg/kg, human tumor equivalent) | changes in the transcriptome (MDA-MB-231 cells [8])
1 | RPPCVIL [RP-7] | significantly reduced number of migrated cells | considerable decrease in the number of invaded cells | inhibited; also recorded: marked inhibition | accumulation of phosphorylated cofilin | inhibited; also recorded: marked inhibition | significant decrease | concomitant increase | decreased tumor growth significantly | 37.43% |  |  |  | 
2 | LAIAVK [LA3IK] | significantly reduced number of migrated cells | considerable decrease in the number of invaded cells | inhibited | accumulation of phosphorylated cofilin | inhibited | significant decrease | concomitant increase | decreased tumor growth significantly | 75.39% | marked inhibition | marked inhibition | partial response | inhibited genes responsible for migration and cancer progression
